We go through three molecules from patent publication US8426677B2, “Method of controlling plant growth and architecture by controlling expression of gibberellin 2-oxidase” (Academia Sinica, priority 2008, dated 2013).

For data set [1], the system named is GA2ox6ACT mutant and wild type rice seeds/seedlings. Description: Germination and seedling growth of rice on MS agar medium with or without GA3. It counts as in vivo, Oryza sativa. As to the method: To determine whether the dwarfism of rice mutants overexpressing GA2ox was a result of a reduction of bio-active GAs, GA2ox6ACT mutant seeds were germinated on MS agar medium with or without supplementation with 5 μM GA3.
The rice cultivar Oryza sativa L. cv Tainung 67 was used as in this study. Four T-DNA tagged rice GA2ox mutant lines were obtained from the Taiwan Rice Insertional Mutagenesis database (TRIM database, http://trim.sinica.edu.tw/). T1 mutant seeds were surface sterilized in 2.5% NaClO for 18 minutes, washed well with sterile water, placed on MS agar medium (Murashige and Skoog Basal Medium, Sigma), and incubated at 28° C. with continuous light for 15˜20 days. Wild type rice was grown under the same conditions. Plants were transplanted to pot soil and grown in a net-house during the growing season.

The test system of data set [2] is Ubi::GA2ox6 transgenic rice and wild type. Description: GA3 treatment of wild type and Ubi::GA2ox6 transgenic rice grown in pot soil (plant height). Type of data set: in vivo, Oryza sativa. Particulars: 10 μM GA3 at a 12-day interval for 5 weeks.
Data set [3] relates to GA2ox6ACT mutant seedlings. Description: Tiller and adventitious root development of seedlings grown in media with or without GA3. Type of data set: in vivo, Oryza sativa. As to conditions: 5 μM GA3 in medium. The text has this: (§1) Additionally, the inhibition of tillering by GA3 was independent of rice growth stage (see FIG. 15B). […] Both GA-treated GA2ox6ACT mutant and wild-type plants produced 2-3 times fewer tillers than mutant and wild-type plants without GA treatment (FIG. 15B).

The test system of data set [4] is wild type and GA2ox6ACT plants. Put plainly: Tiller number of 1-month-old plants in pot soil sprayed with GA3. Particulars: 10 μM GA3 spray once every 7 days, 3 sprays, GA2ox6ACT mutant and wild type. Type of data set: in vivo, Oryza sativa.
From the text: as §1

The subject of data set [5] is OSH1 mRNA. Put plainly: RT-PCR of OSH1 mRNA in embryos containing tiller buds. Type of data set: in vivo, Oryza sativa. As to conditions: 12 DAI. As to the method: (§2) To determine whether GA deficiency induced expression of OSH1 and TB1 that in turn promotes tillering and root development, GA2ox5Δ335-341ACT, GA2ox6ACT and wild type seedlings were grown in media with or without 5 μM GA3 after germination. Rice embryos containing tiller buds were collected at 12 DAI. […] It is not clear why the accumulation of OSH1 and TB1 mRNAs in the wild type was enhanced by GA3 (FIG. 14A), nevertheless, its stem became slenderer and adventitious root growth was inhibited similar as mutants (FIG. 14B).
(§3) Total RNA was purified from rice tissues using a Trizol reagent (Invitrogen). Total RNA (15 μg aliquots) was treated with 1 unit of RNase-free DNase I (Promega) in a 20 μL volume and incubated at 37° C. for 30 min. The RNA sample was then incubated at 65° C. for 10 min and placed on ice. cDNA synthesis was performed in a 20 μL mixture containing 1× reverse transcription reaction buffer (Invitrogen), 4.5 μg of purified RNA, 400 ng oligo (dT)16 primer, 5 mM DTT, 0.5 mM each dNTP, 40 units RNasin (Promega), and 200 units Superscript® III reverse transcriptase (Invitrogen). The reaction was carried out at room temperature (25° C.) for 10 min, transferred to 50° C. for 1 h, and terminated by heating at 72° C. for 15 min. The sample, which served as a cDNA stock for PCR analysis, was then stored at −70° C. […]

In data set [6] the test system is TB1 mRNA. Description: RT-PCR of TB1 mRNA in embryos containing tiller buds. It counts as in vivo, Oryza sativa. Particulars: 12 DAI. The method, then: as §2, §3
Data set [7] has as its system GA2ox6 mRNA. Description: RT-PCR of GA2ox6 mRNA in leaves and roots of seedlings. It counts as in vivo, Oryza sativa. Particulars: GA3 treatment, wild type and GA2ox6ACT mutant seedlings at 18 DAI. The method, then: Total RNA was purified from rice tissues using a Trizol reagent (Invitrogen). Total RNA (15 μg aliquots) was treated with 1 unit of RNase-free DNase I (Promega) in a 20 μL volume and incubated at 37° C. for 30 min. The RNA sample was then incubated at 65° C. for 10 min and placed on ice. cDNA synthesis was performed in a 20 μL mixture containing 1× reverse transcription reaction buffer (Invitrogen), 4.5 μg of purified RNA, 400 ng oligo (dT)16 primer, 5 mM DTT, 0.5 mM each dNTP, 40 units RNasin (Promega), and 200 units Superscript® III reverse transcriptase (Invitrogen). The reaction was carried out at room temperature (25° C.) for 10 min, transferred to 50° C. for 1 h, and terminated by heating at 72° C. for 15 min. The sample, which served as a cDNA stock for PCR analysis, was then stored at −70° C.
RT-PCR analysis was carried out in a 15 μl, solution containing 0.9 μL cDNA, 1×PCR buffer (Promega), 1.5 mM MgCl2, 0.2 mM each dNTP, 0.3 μmole each primer, 3% DMSO, and 0.6 units of Taq DNA polymerase (Promega). For GA2ox2, GA2ox7, and GA2ox8 that had very low mRNA abundance, RT-PCR analysis was carried out using KOD Hot Start DNA Polymerase (Novagen). Each 15 μL of reaction solution contained 0.9 μL cDNA, 1×PCR buffer (Novagen), 1.0 mM MgSO4, 0.2 mM each dNTP, 0.3 μmole each primer, 3% DMSO, and 1 unit of KOD Hot Start DNA Polymerase (Novagen). […]

Data set [8] can be described thus: In vitro enzyme activity of recombinant GST fusion GA2ox5 and GA2ox6 expressed in E. coli. Particulars: partially purified glutathione S-transferase fusion protein. Type of data set: biochemical, Oryza sativa. The text has this:
GA53, a precursor of GA1, could be converted to GA97 in vitro by the Arabidopsis class C20 GA2ox through 2β-hydroxylation (Schomburg et al., 2003). The in vitro activity of rice GA2ox5 and GA2ox6 were also investigated by overexpression as fusion proteins with glutathione S-transferase in E. coli. Fusion proteins were partially purified and their enzyme activity analyzed.
Full length cDNAs of GA2ox5 and GA2ox6 in the pGEM®-T Easy cloning vector were digested with BamHI and subcloned into the same site in pGEX-5X expression vector (Amersham Biosciences). The resulting expression vectors were used to transform E. coli strain BL21-CodonPlus® (DE3) RIPL (Stratagen). A volume of 5 mL transformants pre-cultured overnight in Luria-Bertani broth (LB broth, DIFCO) was transferred to 500 mL of LB broth with 100 mgL^−1 ampicillin and incubated at 37° C. until cell density reached an OD600 around 0.6˜0.8. Isopropyl-β-D-thiogalactopyranoside (IPTG) was added to the bacteria culture to a final concentration of 0.3 mM and incubated at 28° C. for another 3 hours. Bacteria were pelleted by centrifuge and harvested, resuspended in BugBuster® Protein Extraction Reagent (Novagen) at room temperature for 10˜20 minutes, and centrifuged at […] for 30 min. The supernatant protein extracts were partially purified through GST-Bind resin (Novagen), and the purified protein extracts were stored at −80° C. […]

[9] abbreviates: 5 μM GA3, GA2ox5Δ335-341ACT and GA2ox6ACT mutants.

Turning to `C=C1C[C@]23C[C@@]1(O)CC[C@H]2[C@@]12C=C[C@H](O)[C@@](C)(C(=O)O1)[C@H]2[C@@H]3C(=O)O` [GA3], in data set [1] (5 μM GA3, 18 DAI), the “Root lengths of wild type and GA2ox6ACT mutant seedlings” value is given as “effectively enhanced”. Further, the “Height of dwarf GA2ox6ACT mutant seedlings, recovery relative to the wild type” value in data set [1] (5 μM GA3, GA2ox6ACT mutant, 18-day-old seedlings) is “up to 84 % of the wild type”. Further, the “Plant height of 18-day-old wild-type seedlings” value in data set [1] (5 μM GA3, wild type, 18 DAI) is “only slightly enhanced”. Also, the “Germination of GA2ox6ACT seeds” value in data set [1] (5 μM GA3 in MS agar medium) is reported as “promoted germination”. The “Final height of Ubi::GA2ox6 transgenic plants relative to the wild type” value in data set [2] was 63 % of the WT. Moreover, in data set [2] (wild type), the “Height of wild type plant” value is given as “not altered”. For the same molecule, the “Root system compared to the mutant without GA treatment” value in data set [3] (GA2ox6ACT mutant) was “significantly reduced”. Further, the “Time at which the first tiller developed” value in data set [3] (GA2ox6ACT mutant (9 DAI without GA treatment)) turned out to be 16 DAI. In addition, in data set [4], the “Tillers produced compared to plants without GA treatment” value is recorded as 2-3 times fewer. In addition, the “OSH1 mRNA level in mutants” value in data set [5] (setting [9]) is reported as “significantly reduced”. Also, in data set [5] (5 μM GA3, wild type), the “OSH1 mRNA accumulation in the wild type” value was “enhanced”. In addition, the “TB1 mRNA level in mutants” value in data set [6] (setting [9]) was “significantly reduced”. The “TB1 mRNA accumulation in the wild type” value in data set [6] (5 μM GA3, wild type) is “enhanced”. For the same molecule, the “GA2ox6 mRNA accumulation in leaves and roots” value in data set [7] was “unaffected”.

B1: GA2ox6: rice class C20 gibberellin 2-oxidase (SEQ ID NO:4), expressed in E. coli and partially purified (protein, listed as Oryza sativa)
chain: MPAFADIAIDPPLADSYRALALLRRDRDGGIAPPAVQMVGSGGAVLERDLPMVDLERLTRGGAGERKACAGAMARAASEWGFFQLTNHGVGRELMEEMRREQARLFRLPFETKEKAGLLNGSYRWGNPTATSLRHLSWSEAFHVPLASISGADCDFGDLTSLRGVMQEVAEAMSRVANTVAAALAEELTGRGGGGASAAPWFPAGCDETTCFLRLNRYPACPFAADTFGLVPHTDSDFLTVLCQDQVGGLHLMKDSRWVAVRPRPDALVVNIGDLFQAWSNNRYKSVEHKVVANAKTDRLSVAYFLCPSYDSLVGTCGEPSPYRAFTFGEYRKKVQEDVRTTGKKIGLPNFFKHSSVQ
Consider B1, for which, in data set [8], the “Conversion of GA53 to GA97 (2β-hydroxylation)” value is given as “could convert GA53 to GA97”.

B2: GA2ox5: rice class C20 gibberellin 2-oxidase (SEQ ID NO:2), expressed in E. coli and partially purified (protein, listed as Oryza sativa)
chain: MEEHDYDSNSNPPLMSTYKHLFVEQHRLDMDMGAIDVDECELPVIDLAGLMEAEQVCRADMVRAASEWGFFQVTNHGVPQALLRELHDAQVAVFRRPFQEKVTERLLGFSPESYRWGTPTAKCLEQLSWSEAYHIPMTTPRPSTSIRARAVIEEVSRAMYELAQKLAEILMRGLPGAGEGETMVTTREETCFLRLNRYPPCAMAMGGFGLCPHTDSDLLTIVHQQQDTVGGLQLLKGGRWVAVKPSPSTLIVNVGDLLQAWSNDVYKSVEHRVMANATLERFSMAFFLCPSYHTLIIPSSSHVHDDDAHYRSFTFGEYRKQIMEDVRSTGRKIGLHRFRTR
In the case of B2, in data set [8], the “Conversion of GA53 to GA97 (2β-hydroxylation)” value is listed as “could convert GA53 to GA97”.
